For test [1], the system named is E. coli WT. The format is cell-based. As to the method: (§1) Bacterial strains and plasmids are listed in SI Table S5. LB growth media was prepared according to manufacturer’s instructions and supplemented with 0.2% arabinose and carbenicillin (50 μg/mL) for the strains containing pBAD24-mcr1 plasmid. Cultures were started by inoculating 3 ml LB with 1–2 colonies from fresh overnight plates and grown at 37 °C until in log phase. Modified minimal inhibitory concentration (MIC) assays were performed in 96-well round bottom polystyrene plates (Corning) with a final volume of 100 µl in LB supplemented with tween-80 at 0.0005%. […] Polymyxin B sulfate (TCI Co. Ltd), polymyxin B nonapeptide (PMBN) (Sigma), and brevicidine (Genentech) were diluted directly in the assay plates. Bacteria were diluted in LB with tween-80 0.0005% and added to a final OD600 of 0.0005. Growth was measured via OD600 on a SpectraMax M5 plate reader after overnight static growth at 37 °C with humidity.

Test [2] deals with S. aureus WT. In kind it is cell-based. As to the method:
as §1

Test [3] deals with wt-OMVs. In words: Three-state model fit to SPR titration, wt-OMVs. The format is binding, E. coli. From the text: To estimate binding constants, the three-state model was fit to binding curve titrations (Fig. 5A, B, and Table 2). Briefly, the SPR response curves of polymyxin B binding wt-OMVs (Fig. 5A) or resistant OMVs (Fig. 5B) were globally fit to Eqn. (1) by non-linear regression coupled to numerical integration of the associated ordinary differential equations (see Supplementary Information Section 2A), which define the time-dependent concentrations of each species.1 Response(t)=([PMBL]t+[nPMBL]t+2*[tPMB]t+m.[cPMB]t).MW.G.
Section 2A - Formulation of three-state model for fitting SPR data
The three-state model (Fig. 4) was formulated as a set of coupled ordinary differential equations (ODEs), with eight binding rate constants (k1-8) governing the rates of interchange of each species.
Forward rate constants k7 and k9 were eliminated from the equation set as formation of transient species tPMB and LL are irreversible.
Time at Injection 1 start = 0 s
Sample contact time = 30 s
Dissociation time interval = 35 s
Mass transport rate = kt = 46.5 1/s
Initial Species Concentrations
Coupled ODEs of Three-State Model d[L]/dt = -(k1.[PMB].[L] - k2.[PMBL])+2*k10.[LL] (S8) d[PMB]/dt = -(k1.[PMB].[L] - k2.[PMBL]) + kt’.([PMBi](t) –[PMB]) (S9) d[PMBL]/dt = (k1.[PMB]*[L] - k2.[PMBL])-(k3.[PMBL].[n] - k4.[nPMBL] ) (S10) d[n]/dt = -(k3.[PMBL].[n] - k4.[nPMBL] ) (S11) d[nPMBL]/dt = (k3.[PMBL].[n] - k4.[nPMBL])-2.(k5.[nPMBL].[nPMBL] - k6.[tPMB].[LL] ) (S12) d[tPMB]/dt = (k5.[nPMBL].[nPMBL] - k6.[tPMB].[LL] ) – k8.[tPMB] (S13) d[cPMB]/dt = 2*k8.[tPMB] (S14) d[LL]/dt = (k5.[nPMBL].[nPMBL] – k6.[tPMB].[LL]) – k10.[LL] (S15)
The initial concentrations of each species were as follows
[PMB]t=0 = [PMBL]t=0 = [nPMBL]t=0 = [tPMB]t=0 = [LL]t=0 = [cPMB]t=0 = 0 [L]t=0 = [n]t=0 = 1.56 x 10-4 (units, M) kt’ (units, m/s) was already defined in SI Section 1A. [PMBi](t) is the injected concentration profile and [PMB]t is the concentration profile at the sensing surface. [PMBi](t) follows a serial-doubling concentration of injected analyte, with a concentration profile defined by a serial step function, where each injection step represents a discrete concentration followed by a dissociation step without injected analyte and this is repeated for each concentration in the SCK dosing series.
Kintek Explorer V9.5 was used to build and fit the three-state model. This program employs its own numerical integrator9, which reports the change in concentration of each species over time.
The SPR responses for concentrations of each accumulating PMB-species estimated from Eqn (8 - 15) are summed over time in Eqn (1), repeated here.
Response(t) = ([PMBL]t+[nPMBL]t+2*[tPMB]t+m.[cPMB]t).MW.G. Eqn (1)
The concentration of [tPMB]t is multiplied by two to account for its additional mass, being composed of two PMB molecules. Insertion of PMB into the acyl-LPS matrix to form cPMB is associated with changes in the phase state of LPS10 and is also likely associated with redistribution of mass towards the sensing surface11. These changes will manifest as an increase in sensitivity of the SPR binding response when clusters are formed and are included in Eqn (1) […]
using a sensitivity coefficient (m). MW is the molecular weight of the injected analyte, in this case PMB (1203.48 Da). The constant, G, is a unit conversion factor that converts protein concentration (g/L) to response (RU) and is typically 100 (units, RU.L/g). […]

Consider two molecules from article PMC11148078, “Potent activity of polymyxin B is associated with long-lived super-stoichiometric accumulation mediated by weak-affinity binding to lipid A” (Nature Communications, 2024).

The structures appear in SMILES notation. Bridge positions count the residues as written; N and C are the ends. Square brackets hold non-standard residues; d marks the D form. Peptide text beside a SMILES is read from it. * marks the point of attachment. X1 = CC[C@H](C)CCCCC(=O)*; Dab = NCC[C@H](N)C(=O)O

For orientation: MIC means the least concentration at which growth counts as inhibited.

Take `CC(C)C[C@@H]1NC(=O)[C@@H](Cc2ccccc2)NC(=O)[C@H](CCN)NC(=O)[C@@H](NC(=O)[C@H](CCN)NC(=O)[C@@H](N)[C@@H](C)O)CCNC(=O)[C@H]([C@@H](C)O)NC(=O)[C@H](CCN)NC(=O)[C@H](CCN)NC1=O` [PMBN] (H-T[Dab][Dab][Dab][dF]L[Dab][Dab]T; lactam 3-C): the “antibacterial activity” value in test [1] is given as “lacks the antibacterial activity of polymyxin B”. Besides, the MIC in test [1] (LB + 0.0005% tween-80, OD600 0.0005, overnight static growth 37 °C, complete growth inhibition) is above 40 µM.

In the case of `CC[C@H](C)CCCCC(=O)N[C@@H](CCN)C(=O)N[C@H](C(=O)N[C@@H](CCN)C(=O)N[C@H]1CCNC(=O)[C@H]([C@@H](C)O)NC(=O)[C@H](CCN)NC(=O)[C@H](CCN)NC(=O)[C@H](CC(C)C)NC(=O)[C@@H](Cc2ccccc2)NC(=O)[C@H](CCN)NC1=O)[C@@H](C)O` [Polymyxin B] (X1-[Dab]T[Dab][Dab][Dab][dF]L[Dab][Dab]T; lactam 4-C (inferred); N-terminus assumed), the MIC in test [2] (LB + 0.0005% tween-80, overnight 37 °C) is above 40 µM. The “antibacterial activity” value in test [2] (highest tested concentration) is reported as “no activity at the highest tested concentration”. Moreover, the k5 in test [3] (dimerization of nPMBL, global fit, max 625 nM) came to 20.75 M⁻¹ s⁻¹. The molecule further gave a k3 in test [3] (membrane insertion / nPMBL formation, global fit, max 625 nM) of 2233 M⁻¹ s⁻¹. This molecule also had a k4 in test [3] (nPMBL dissociation, global fit, max 625 nM) of 0.00488 s⁻¹. In test [3] (peer review file), the “relative fraction of transition state” value is recorded as below 0.1%. Also, in test [3] (stability of nucleates (nPMBL)), the “residence time = 1/k4” value was 205 s.
